Measurements taken from the supplement of paper PMC10307832.

Columns and labels:
Test in all cases: relative viability (nuclei count vs DMSO), 5 days (fraction); higher = more cells survive
[1] = compound: C=C(c1ccc(C(=O)O)cc1)c1cc2c(cc1C)C(C)(C)CCC2(C)C [Bexarotene] + Nc1ncn([C@H]2C[C@H](O)[C@@H](CO)O2)c(=O)n1 [Decitabine] (partner 2 µM)
Procedure, shortened: (§1)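 Lung cancer cell lines in 1536-well plates were dosed by pin tool the day after seeding, either with one drug alone or with a fixed anchor-drug dose plus five library-drug doses (not always all listed) in √10 steps. After 5 days, cells were fixed and their nuclei stained in one step (final 0.05% Triton X-100, 1% formaldehyde, 1 ug/ml Hoechst), then counted on 4× images. Relative viability is the nuclei count in treated wells divided by that in vehicle wells. Values are medians of duplicate plates.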

[2] = compound: C=C(c1ccc(C(=O)O)cc1)c1cc2c(cc1C)C(C)(C)CCC2(C)C [Bexarotene] + O=C(c1cc(Cc2n[nH]c(=O)c3ccccc23)ccc1F)N1CCN(C(=O)C2CC2)CC1 [Olaparib] (partner 8 µM)
Procedure, shortened: as §1

[3] = compound: C=C(c1ccc(C(=O)O)cc1)c1cc2c(cc1C)C(C)(C)CCC2(C)C [Bexarotene] + CS(=O)(=O)CCNCc1ccc(-c2ccc3ncnc(Nc4ccc(OCc5cccc(F)c5)c(Cl)c4)c3c2)o1 [Lapatinib] (partner 2 µM)
Procedure, shortened: as §1

[4] = compound: C=C(c1ccc(C(=O)O)cc1)c1cc2c(cc1C)C(C)(C)CCC2(C)C [Bexarotene] + NC(=O)Nc1cc(-c2cccc(F)c2)sc1C(=O)N[C@H]1CCCNC1 [AZD7762] (partner 0.2 µM)
Procedure, shortened: as §1

Cell Line | relative viability ([1]; first compound 0.08 µM) | relative viability ([1]; first compound 0.253 µM) | relative viability ([1]; first compound 0.8 µM) | relative viability ([1]; first compound 2.53 µM) | relative viability ([1]; first compound 8 µM) | relative viability ([2]; first compound 0.08 µM) | relative viability ([2]; first compound 0.253 µM) | relative viability ([2]; first compound 0.8 µM) | relative viability ([2]; first compound 2.53 µM) | relative viability ([2]; first compound 8 µM) | relative viability ([3]; first compound 0.08 µM) | relative viability ([3]; first compound 0.253 µM) | relative viability ([3]; first compound 0.8 µM) | relative viability ([3]; first compound 2.53 µM) | relative viability ([3]; first compound 8 µM) | relative viability ([4]; first compound 0.08 µM) | relative viability ([4]; first compound 0.253 µM) | relative viability ([4]; first compound 0.8 µM) | relative viability ([4]; first compound 2.53 µM) | relative viability ([4]; first compound 8 µM)
NCI-H1437 | 0.592 | 0.581 | 0.556 | 0.564 | 0.51 | 0.613 | 0.638 | 0.599 | 0.623 | 0.597 | 0.975 | 0.893 | 0.759 | 0.9 | 0.778 | 1.2 | 1.14 | 1.19 | 1.14 | 1.15
NCI-H1651 | 0.77 | 0.548 | 0.66 | 0.638 | 0.618 | 0.201 | 0.226 | 0.208 | 0.206 | 0.197 | 1.08 | 0.968 | 0.887 | 0.862 | 0.753 | 0.544 | 0.491 | 0.525 | 0.454 | 0.549
NCI-H1666 | 0.813 | 0.696 | 0.773 | 0.689 | 0.693 | 0.714 | 0.754 | 0.694 | 0.691 | 0.63 | 0.753 | 0.588 | 0.446 | 0.512 | 0.504 | 1.02 | 0.839 | 0.82 | 0.817 | 0.895
NCI-H1734 | 0.522 | 0.461 | 0.498 | 0.483 | 0.441 | 0.669 | 0.648 | 0.573 | 0.709 | 0.633 | 1.02 | 1.04 | 1.07 | 0.942 | 0.944 | 0.552 | 0.536 | 0.522 | 0.488 | 0.526
NCI-H1755 | 0.783 | 0.743 | 0.783 | 0.778 | 0.75 | 0.982 | 0.957 | 1.03 | 0.951 | 0.887 | 1.07 | 1.29 | 1.1 | 0.994 | 1.02 | 0.536 | 0.6 | 0.439 | 0.569 | 0.54
NCI-H1792 | 0.548 | 0.527 | 0.493 | 0.531 | 0.425 | 0.229 | 0.435 | 0.393 | 0.337 | 0.32 | 0.883 | 0.763 | 0.794 | 0.574 | 0.837 | 0.64 | 0.572 | 0.526 | 0.593 | 0.526
NCI-H1793 | 0.54 | 0.434 | 0.563 | 0.469 | 0.328 | 1.06 | 0.966 | 0.787 | 0.903 | 0.695 | 0.647 | 0.68 | 0.647 | 0.568 | 0.519 | 0.442 | 0.68 | 0.511 | 0.505 | 0.504
NCI-H1915 | 0.272 | 0.259 | 0.274 | 0.255 | 0.23 | 0.265 | 0.262 | 0.284 | 0.278 | 0.242 | 1.1 | 0.793 | 0.979 | 0.999 | 1.04 | 0.707 | 0.724 | 0.674 | 0.653 | 0.655
